The test system of test [1] is NQO1 deficient and C57BL/6 mice. Nature of the test: LPS-induced murine emphysema with oral NAC. The class given is in vivo, mouse. From the text:
(§1) C57BL/6J mice were purchased from Jackson Laboratories (Bar Harbor, Me.) to be used as controls. A breeding colony was established at Duke University from breeding pairs of NQO1 deficient mice (backcrossed 16 generations on a C57BL/6 background) that were generously provided by Dr. Frank Gonzalez at the National Cancer Institute (Bethesda, Md.) (Radjendirane et al. J. Biol. Chem. 1998; 273:7382-7389). Male C57BL/6 or NQO1 deficient mice were used at one, two, four and six months of age. Experimental protocols were approved by the Institutional Animal Care and Use Committee at Duke University Medical Center and were performed in accordance with the standards established by the U.S. Animal Welfare Act.
LPS (Sigma Aldrich, St Louis Mo.) was reconstituted with sterile saline and added for a dose of 5 μg/m^3. At one month of age, mice were placed in stainless steel wire cage exposure racks in a 20-L plexiglass chamber and exposed to aerosolized LPS for 2.5 hours. LPS solution was aerosolized with a 6-jet atomizer (TSI) with all output directed to the exposure chamber. Filtered air was supplied to the atomizer at 30-psi gauge pressure (Brass et al. Am. J. Resp. Cell. Mol. 2008; 39:584-590). Mice were then returned to their cages. The mice were exposed every other day for a total of three exposures and then given four weeks to recover.
(§2) N-acetyl cysteine (Sigma Aldrich, St. Louis Mo.) was dissolved in the mouse water at a concentration of 2 mg/mL (March et al. Toxicol. Sci. 2006; 92:545-559). The water was changed every two days to prevent oxidation of the NAC. Mice were given NAC in their water for one week before LPS/Saline or PPE/Saline treatment and remained on the NAC water until phenotyping.
(§3) For the mice that underwent pulmonary function tests, the procedure required approximately five minutes per mouse from the point at which the mouse was administered anesthetic and prepared for surgery until the conclusion of pulmonary function measurements and euthanasia. Mice were anesthetized (60 mg/kg Nembutal) and surgically prepared with a tracheal cannula and then placed on a computer-controlled ventilator (flexiVent, SCIREQ, Montreal, Canada) at a constant tidal volume of 7.5 mL/kg and a […] of 3 cm H2O. The animals were then given a neuromuscular blockade (0.8 mg/kg Pancuronium Bromide, Sigma-Aldrich) and given three minutes to adjust to the ventilator. Pressure-volume curves were generated by slow stepwise (ramp) inflation to total lung capacity and deflation back to […] residual capacity (Lovgren et al. Am. J. Physiol. 2006; 291:L144-156). The static compliance measurements were calculated from the pressure volume curves ([…]).
Alveolar surface density (ASD) was calculated as previously described (Auten et al. Am. J. Physiol. 2001; 281:L336-344). Briefly, ten digital images of parenchymal architecture from each mouse were captured at 40× magnification were chosen (omitting large vascular and bronchiolar structures) from 5 μm thick sections of paraffin embedded, formalin-fixed mouse lung that were stained with hematoxylin and eosin (H&E stain, AML Laboratories, Rosedale, Md.). […] Alveolar volume density was calculated from Palveoli/Pparenchyma and alveolar surface density from 2Ialveoli/LT, where LT was the test line length within the lung parenchyma. […]

Test [2] has the same test system. Nature of the test: elastase (PPE) model of emphysema with oral NAC. The class given is in vivo, mouse.
From the text: as §1
At two months of age, WT and NQO1 deficient mice were treated with porcine pancreatic elastase (PPE, Sigma Aldrich, St. Louis Mo.) or saline by oropharyngeal aspiration. Briefly, immediately after inhalational anesthesia with 3% isoflurane (IsoFlo from Abbott Laboratories and Open-Circuit Gas Anesthesia System from Stoelting), animals were suspended by their upper incisors on a 60° incline board, and a liquid volume of PPE [25 μg/50 μL saline] or saline alone was delivered by oropharyngeal aspiration. Thirteen days post, the mice were phenotyped by flexiVent for pulmonary mechanics and lavage to collect bronchoalveolar lavage fluid (Foster et al. J Appl Physiol 2001; 90:1111-1117).
as §2, §3
Alveolar surface density (ASD) was calculated as previously described (Auten et al. Am. J. Physiol. 2001; 281:L336-344). Briefly, ten digital images of parenchymal architecture from each mouse were captured at 40× magnification were chosen (omitting large vascular and bronchiolar structures) from 5 μm thick sections of paraffin embedded, formalin-fixed mouse lung that were stained with hematoxylin and eosin (H&E stain, AML Laboratories, Rosedale, Md.). Five random fields were chosen (omitting large vascular and bronchiolar structures) and images were overlaid with an 11°-11 point grid (Metamorph; Universal Imaging, West Chester, Pa.) for point (P) and intercept (I) counting of the alveolar septa. Alveolar volume density was calculated from Palveoli/Pparenchyma and alveolar surface density from 2Ialveoli/LT, where LT was the test line length within the lung parenchyma.

Test [3] deals with human DNA Topoisomerase II. The settings on record: cited from earlier work.
Test [4] has as its target T1, human DNA Topoisomerase I (Homo sapiens, UniProt P11387).
T1 sequence (P11387 1-765): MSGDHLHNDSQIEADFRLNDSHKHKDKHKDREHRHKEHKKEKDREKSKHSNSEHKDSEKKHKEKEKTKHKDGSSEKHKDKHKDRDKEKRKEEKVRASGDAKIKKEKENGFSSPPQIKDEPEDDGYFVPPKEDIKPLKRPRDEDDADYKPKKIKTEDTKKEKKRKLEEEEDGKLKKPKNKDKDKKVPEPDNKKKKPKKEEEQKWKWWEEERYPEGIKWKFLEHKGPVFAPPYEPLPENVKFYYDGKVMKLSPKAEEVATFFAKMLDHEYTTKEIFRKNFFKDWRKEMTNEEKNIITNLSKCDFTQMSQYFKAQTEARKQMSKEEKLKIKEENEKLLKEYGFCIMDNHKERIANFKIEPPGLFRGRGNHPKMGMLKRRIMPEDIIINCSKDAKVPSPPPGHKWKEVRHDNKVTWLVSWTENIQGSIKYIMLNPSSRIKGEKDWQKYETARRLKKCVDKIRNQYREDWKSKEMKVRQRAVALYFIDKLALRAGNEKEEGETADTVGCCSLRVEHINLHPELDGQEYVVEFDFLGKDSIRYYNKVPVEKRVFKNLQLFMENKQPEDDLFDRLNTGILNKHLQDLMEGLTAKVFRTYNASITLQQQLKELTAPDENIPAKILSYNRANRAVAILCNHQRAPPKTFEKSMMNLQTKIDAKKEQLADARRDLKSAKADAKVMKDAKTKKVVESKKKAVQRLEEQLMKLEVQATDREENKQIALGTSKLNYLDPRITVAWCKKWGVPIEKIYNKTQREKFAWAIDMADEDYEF
The settings on record: cited from earlier work.

Another test deals with human cancer cell lines. Conditions: single agent, read-out: antineoplastic activity (IC50); cited from earlier work.
In test [5] the test system is mouse alveolar macrophage cell line (MHS cells). Nature of the test: oxidative stress in macrophage cell line after NQO1 inhibitor or inducer pretreatment and LPS or PMA challenge. The class given is cell-based. Conditions: pretreated 4 hours (100 nM MAC220 or 5-10 μM β-lapachone), then PMA or LPS 2 hours, supernatant.
Procedure: Murine alveolar macrophage cell line (MH-S cell) purchased from ATCC (Manassas, Va.) was used for in vitro NQO1 blocking and inducing assays. Cells were cultured in RPMI1640 medium supplemented with 10% heat-inactivated fetal bovine serum, 2 mM L-glutamine, penicillin (100 U/ml), streptomycin (100 μg/ml), and 10 mM HEPES. To determine the role of NQO1 in macrophage response to LPS or PMA, cells at 80-90% confluence were pretreated with 10 μM of dicumerol for 1 hour, 100 nM of MAC220 or 5-10 μM of β-lapachone for 4 hours, and then were challenged by 20 ng/ml of LPS or 1 μM of PMA. Cell culture supernatants were collected after 2 hour incubation. Same volume of DMSO and PBS were used as vehicle control.
The mark [6] stands for this setting: LPS treated NQO1 deficient mice compared to LPS+NAC NQO1 deficient mice.
[7] abbreviates: BALF, NQO1 and WT mice given NAC prior to elastase challenge.
The mark [8] stands for this setting: NQO1 deficient mice, oral NAC in water + elastase vs elastase only.

Each structure is given as a SMILES string.

`CC(=O)N[C@@H](CS)C(=O)O` [NAC, N-acetyl cysteine]: in test [1] (setting [6]), the “8-isoprostane concentrations in the BALF” value is “significant increase” and the “protein carbonyls in the BALF” value is reported as “significant increase”. Further, the “polymorphonuclear leukocytes, share of BALF cells” value in test [1] (LPS+NAC treated NQO1 deficient mice (LPS only: 5-9%)) was 1-4%. In addition, the “Glutathione measurements in the BAL” value in test [1] (NQO1 deficient mice treated with NAC, LPS model) was “increased concentrations”. Further, the static compliance result in test [1] (NQO1 deficient mice, LPS + NAC vs LPS) was “attenuated”. Further, in test [2] (setting [7]), the 8-isoprostane levels entry was “reduction” and the protein carbonyls result is “reduction”. The “Glutathione measurements in the BAL” value in test [2] (NQO1 deficient mice treated with NAC, elastase model) is reported as “increased concentrations”. In test [2] (setting [8]), the lung compliance entry is reported as “partially attenuated” and the pressure-volume measurements entry was “partially attenuated”. For the same molecule, in test [2] (PPE only group compared to the PPE+NAC group, NQO1 deficient and C57BL/6 mice), the “neutrophils in BALF” value is “significant increase”. Also, in test [2] (PPE+NAC vs PPE groups), the mean line intercepts result is “complete abrogation of the elastase effect” and the surface alveolar density result is reported as “complete abrogation of the elastase effect”.
By IC50 is commonly meant the concentration needed to halve the response being measured. As to `CC1(C)CCC2=C(O1)c1ccccc1C(=O)C2=O` [β-lapachone, 3,4-dihydro-2,2-dimethyl-2H-naphtho[1,2-b]pyran-5,6-dione], in test [3], the “in vitro inhibition of human DNA Topoisomerase II” value is reported as “potent in vitro inhibition”. In addition, the “in vitro inhibition of human DNA Topoisomerase I” value in test [4] is on record as “potent in vitro inhibition”. Also, the IC50 in the test on human cancer cell lines was 1 to 10 µM. In addition, in test [5], the oxidative stress level result is “dose response decrease”.

Source of the values: patent publication US20140155361A1, “METHOD FOR TREATING LUNG DISEASE” (Duke University, priority 2010, published 2014).
